Reference: patent publication US20130123494A1, “COMPLEX COMPOUND AND OPTICAL RECORDING MEDIUM CONTAINING SAME” (KH NEOCHEM CO., LTD., priority 2010, published 2013)

Assays:
Format in all cases: physicochemical
[1] = Moisture- and heat-resistances test of thin films; conditions: thin film, 80° C., relative humidity 80%, 100 hours
Protocol: Similarly to the film-forming test, thin films of Complex Compounds (2) to (5), (7), (9) to (11), (13) to (21), (24), (26), (28), (30), (31), and (33) were respectively obtained. Using a constant temperature and humidity chamber, KHWII-40HP, manufactured by Satake Chemical Equipment Mfg Ltd., the thin films were exposed in the atmosphere having a temperature of 80° C. and a relative humidity of 80% for 100 hours. Ultraviolet-visible absorption spectra of the thin films before and after the moisture- and heat-resistances test were measured using a spectrophotometer. […] Here, the absorption maximum wavelength after the moisture- and heat-resistances test denotes the absorption maximum wavelength in an absorption spectrum after the moisture- and heat-resistances test.

[2] = Test of storage stability in solution; conditions: 13 mg in 1 mL TFP, brown bottle, 25° C., 3 days; 1250-fold diluted for measurement
Protocol: Each of 13 mg of Complex Compounds (2) to (5), (7), (9) to (11), (13) to (21), (24), (26), (28), (30), (31), and (33) was dissolved in 1 mL of TFP, which was filtered with a filter made of TEFLON (registered trademark) (manufactured by Whatman, having a pore diameter of 0.20 μm), and solutions of Complex Compounds (2) to (5), (7), (9) to (11), (13) to (21), (24), (26), (28), (30), (31), and (33) were respectively obtained. Each of the obtained solutions was transferred to a brown bottle with a lid and stored at 25° C. for 3 days. Before and after the storage stability test, using a spectrophotometer, 1250-fold diluted solutions of Complex Compounds (2) to (5), (7), (9) to (11), (13) to (21), (24), (26), (28), (30), (31), and (33), respectively, were measured for their ultraviolet-visible absorption spectra. […] Here, the absorption maximum wavelength after the storage stability test is the absorption maximum wavelength in the absorption spectrum after the storage stability test.

[3] = Water resistance test of thin films; conditions: for I^d/I^d0 (absorbance ratio at absorption maximum after/before water resistance test) / Δλmax (d) (change in absorption maximum wavelength): thin film immersed in water at 75° C. for 30 minutes; for Water resistance of thin film (in words): thin film in water at 75° C. for 30 minutes
Protocol: Similarly to the film-forming test, thin films of Complex Compounds (2), (3), (13), (19), and (20) were respectively obtained. Ultraviolet-visible absorption spectra of the thin films were measured using a spectrophotometer before and after the water resistance test in which the thin films were immersed in water at 75° C. for 30 minutes. […] Here, the absorption maximum wavelength after the water resistance test denotes the absorption maximum wavelength in the absorption spectrum after the water resistance test. […] Here, the water resistance test is a test under severe conditions, and a thin film having the ratio (I^d/I^d0) of 0.5 or greater has favorable water resistance.

[4] = Lightfastness test of thin films; conditions: thin film on glass plate, UV fluorescent lamps 15 W/m^2, 45° C., 10 hours
Source text: Thin films of Complex Compounds (2) to (5), (7), (9) to (11), (13) to (21), (24), (26), (28), (30), (31), and (33) were respectively obtained similarly to the film-forming test except that a glass plate (manufactured by Taiyu Kizai Co., Ltd.; 2 cm×2 cm; thickness: 2 mm) was used as the substrates instead of the plate made of polycarbonate resin. Using a dewpanel light control weather meter DPWL-5R, manufactured by Suga Test Instruments Co., Ltd., which was equipped with ultraviolet fluorescent lamps (SUGA-FS40, manufactured by Suga Test Instruments Co., Ltd., having a peak wavelength of 313 nm and an illuminance distribution of 282 nm to 373 nm), light was irradiated on the thin films with an amount of light of 15 W/m^2 at 45° C. for 10 hours. Ultraviolet-visible absorption spectra of the thin film before and after the lightfastness test were measured using a spectrophotometer.
Here, the absorption maximum wavelength after lightfastness test denotes an absorption maximum wavelength in the absorption spectrum after the lightfastness test.

Structure (SMILES) | I^b/I^b0 (absorbance ratio at absorption maximum after/before moisture- and heat-resistances test) [1] | Δλmax(b) (change in absorption maximum wavelength) [1] [nm] | I^c/I^c0 (absorbance ratio at absorption maximum after/before storage stability test) [2] | Δλmax(c) (change in absorption maximum wavelength) [2] [nm] | I^d/I^d0 (absorbance ratio at absorption maximum after/before water resistance test) [3] | Δλmax (d) (change in absorption maximum wavelength) [3] [nm] | Water resistance of thin film (in words) [3] | I^a/I^a0 (absorbance ratio at absorption maximum after/before lightfastness test) [4]
CCCCn1c([O-])c(/C=N/[N-]c2nnnn2-c2ccccc2)c(C)c(C#N)c1=O.CCCCn1c([O-])c(/C=N/[N-]c2nnnn2-c2ccccc2)c(C)c(C#N)c1=O.CCCCn1c([O-])c(/C=N/[N-]c2nnnn2-c2ccccc2)c(C)c(C#N)c1=O.CCCCn1c([O-])c(/C=N/[N-]c2nnnn2-c2ccccc2)c(C)c(C#N)c1=O.Fc1cccc(-[n+]2ccc(-c3cc[n+](-c4cccc(F)c4)cc3)cc2)c1.[Co+3].[Co+3] [Complex Compound (2)] | 0.97 | 0.5 | 1.00 | 0 | 0.73 | 0.5 | superior water resistance | 0.92
Cc1c(/C=N/[N-]c2nnnn2-c2ccccc2)c([O-])n(CC(C)C)c(=O)c1C#N.Cc1c(/C=N/[N-]c2nnnn2-c2ccccc2)c([O-])n(CC(C)C)c(=O)c1C#N.Cc1c(/C=N/[N-]c2nnnn2-c2ccccc2)c([O-])n(CC(C)C)c(=O)c1C#N.Cc1c(/C=N/[N-]c2nnnn2-c2ccccc2)c([O-])n(CC(C)C)c(=O)c1C#N.[Co+3].[Co+3].c1ccc(-[n+]2ccc(-c3cc[n+](-c4ccccc4)cc3)cc2)cc1 [Complex Compound (13)] | 0.99 | 0 | 0.99 | 0 | 0.59 | 0.5 | superior water resistance | 0.87
Cc1c(/C=N/[N-]c2nc3ccccc3o2)c([O-])n(Cc2ccco2)c(=O)c1C#N.Cc1c(/C=N/[N-]c2nc3ccccc3o2)c([O-])n(Cc2ccco2)c(=O)c1C#N.Cc1c(/C=N/[N-]c2nc3ccccc3o2)c([O-])n(Cc2ccco2)c(=O)c1C#N.Cc1c(/C=N/[N-]c2nc3ccccc3o2)c([O-])n(Cc2ccco2)c(=O)c1C#N.Fc1cccc(-[n+]2ccc(-c3cc[n+](-c4cccc(F)c4)cc3)cc2)c1.[Co+3].[Co+3] [Complex Compound (24)] | 1.00 | 0.5 | 1.02 | 0.5 | – | – | – | 0.92
Cc1ccc(-n2c([O-])c(/C=N/[N-]c3nnnn3-c3ccccc3)c(C)c(C#N)c2=O)cc1.Cc1ccc(-n2c([O-])c(/C=N/[N-]c3nnnn3-c3ccccc3)c(C)c(C#N)c2=O)cc1.Cc1ccc(-n2c([O-])c(/C=N/[N-]c3nnnn3-c3ccccc3)c(C)c(C#N)c2=O)cc1.Cc1ccc(-n2c([O-])c(/C=N/[N-]c3nnnn3-c3ccccc3)c(C)c(C#N)c2=O)cc1.[Co+3].[Co+3].c1cc[n+]2c(c1)-c1cccc[n+]1CCC2 [Complex Compound (26)] | 1.00 | 0 | 1.01 | 0 | – | – | – | 0.88
CCCCn1c([O-])c(/C=N/[N-]c2nnnn2-c2ccccc2)c(CCC)c(C#N)c1=O.CCCCn1c([O-])c(/C=N/[N-]c2nnnn2-c2ccccc2)c(CCC)c(C#N)c1=O.CCCCn1c([O-])c(/C=N/[N-]c2nnnn2-c2ccccc2)c(CCC)c(C#N)c1=O.CCCCn1c([O-])c(/C=N/[N-]c2nnnn2-c2ccccc2)c(CCC)c(C#N)c1=O.[Co+3].[Co+3].c1cc2ccc3ccc[n+]4c3c2[n+](c1)CCC4 [Complex Compound (28)] | 0.99 | 0 | 0.99 | 0 | – | – | – | 0.88
Cc1c(/C=N/[N-]c2nnnn2-c2ccccc2)c([O-])n(Cc2ccccc2)c(=O)c1C#N.Cc1c(/C=N/[N-]c2nnnn2-c2ccccc2)c([O-])n(Cc2ccccc2)c(=O)c1C#N.Cc1c(/C=N/[N-]c2nnnn2-c2ccccc2)c([O-])n(Cc2ccccc2)c(=O)c1C#N.Cc1c(/C=N/[N-]c2nnnn2-c2ccccc2)c([O-])n(Cc2ccccc2)c(=O)c1C#N.[Co+3].[Co+3].c1cc[n+]2c(c1)-c1cccc[n+]1CCC2 [Complex Compound (30)] | 0.99 | 0 | 0.99 | 0 | – | – | – | 0.89
Cc1c(/C=N/[N-]c2nnnn2-c2ccccc2)c([O-])n(Cc2ccccc2)c(=O)c1C#N.Cc1c(/C=N/[N-]c2nnnn2-c2ccccc2)c([O-])n(Cc2ccccc2)c(=O)c1C#N.Cc1c(/C=N/[N-]c2nnnn2-c2ccccc2)c([O-])n(Cc2ccccc2)c(=O)c1C#N.Cc1c(/C=N/[N-]c2nnnn2-c2ccccc2)c([O-])n(Cc2ccccc2)c(=O)c1C#N.[Co+3].[Co+3].c1ccc(CC[N+]23CC[N+](CCc4ccccc4)(CC2)CC3)cc1 [Complex Compound (31)] | 1.00 | 0 | 1.02 | 0 | – | – | – | 0.85
Cc1c(/C=N/[N-]c2nc3ccccc3o2)c([O-])n(Cc2ccccc2)c(=O)c1C#N.Cc1c(/C=N/[N-]c2nc3ccccc3o2)c([O-])n(Cc2ccccc2)c(=O)c1C#N.Cc1c(/C=N/[N-]c2nc3ccccc3o2)c([O-])n(Cc2ccccc2)c(=O)c1C#N.Cc1c(/C=N/[N-]c2nc3ccccc3o2)c([O-])n(Cc2ccccc2)c(=O)c1C#N.[Co+3].[Co+3].c1cc[n+]2c(c1)-c1cccc[n+]1CCC2 [Complex Compound (33)] | 1.00 | 0 | 1.01 | 0 | – | – | – | 0.91
